Where a SMILES comes first, the peptide text is derived from it. [ ]: non-standard residue; d: D form. pS = N[C@@H](COP(=O)(O)O)C(=O)O
How the values were obtained:
[1] = molecular target: T1, 14‐3‐3η (Homo sapiens, UniProt Q04917); experiment: Fluorescence anisotropy direct titration, 14‐3‐3η; format: binding
T1 construct: full‐length proteins were concentrated by centrifugation, rebuffered in HEPES buffer; made in house; host or cells: E. coli BL21(DE3)
T1 sequence (Q04917 1-246): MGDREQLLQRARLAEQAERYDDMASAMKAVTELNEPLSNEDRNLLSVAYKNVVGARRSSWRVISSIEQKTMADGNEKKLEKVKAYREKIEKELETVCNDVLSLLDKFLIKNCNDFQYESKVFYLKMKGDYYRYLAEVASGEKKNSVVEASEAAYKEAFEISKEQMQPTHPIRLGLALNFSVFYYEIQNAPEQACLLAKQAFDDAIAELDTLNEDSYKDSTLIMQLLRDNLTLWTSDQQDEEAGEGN
Procedure: All assays were performed in 384 well plates (each experiment was run in triplicates) and data were collected by Perkin Elmer EnVision 2013 plate reader with excitation at 480 nm (30 nm bandwidth), polarised dichroic mirror at 505 nm and emission at 535 nm (40 nm bandwidth, S and P polarised). Experiments were carried out in HBS buffer (10 mM HEPES, 150 mM NaCl, pH 7.4) + 0.1% Tween 20 + 0.1% BSA). A ½ fold dilution series was performed in the titration, with plates read after 30 min, 4 h and 20–24 h. […] Collected data were processed in Microsoft Excel using the equations below. Total intensity I and anisotropy r were calculated using Equations 1 and 2 for each well. Average anisotropy was plotted against protein concentration using OriginPro and a logistic curve was fitted to give r min and r max. Using Equation 3 anisotropy was converted into fraction bound and multiplied by peptide concentration to be fitted in Origin using Equation 5 to obtain K d values.

[2] = molecular target: T1, 14‐3‐3η; experiment: Analytical ultracentrifugation (sedimentation velocity) of 14‐3‐3η with peptide; settings: AUC‐SV; 14 μM 14‐3‐3η, protein : peptide 1 : 1 and 1 : 0.5; 10 mM HEPES, 150 mM NaCl, pH 7.4; 25 °C
Text: The 1 : 1 stoichiometry between the doubly phosphorylated peptides and 14‐3‐3 contrasts with previously reported work, although it may be that the length and/or accessible conformation of the hDMX and hDM2 peptides are incompatible with the simultaneous engagement of both 14‐3‐3 protomers in the dimeric structure. To further explore this behaviour and understand the basis of cooperativity and affinity enhancement we performed additional experiments. To exclude the possible formation of higher‐order oligomers (e.g. 14‐3‐3 tetramers held together by two peptides bridging two dimers), an analytical ultracentrifugation experiment was performed. The 14‐3‐3η (at the concentration of 14 μM, approximately corresponding to the second binding events observed in FA, Fig. 2C) and hDMX335‐373 ^pSer342/pSer367 peptide in two different concentration ratios (1 : 1 and 1 : 0.5, protein vs. peptide) were analysed. […] The second binding event observed only in fluorescence anisotropy experiments, may represent a further non‐specific binding event or an interaction linked to 14‐3‐3 dimerization and will be investigated in future work.
AUC‐SV experiments were performed using a Beckman Coulter Optima XL‐I ultracentrifuge. […] The diffusion‐deconvoluted sedimentation coefficient distributions c(s) were calculated using the SEDFIT program (Bethesda, MD, USA). […]

[3] = molecular target: T1, 14‐3‐3η; experiment: Surface plasmon resonance on immobilized 14‐3‐3η; format: binding; settings: multicycle kinetic format, Langmuir model, 25 °C
Procedure: (§1) […]
Experiments were performed at 25 °C using a Biacore T200 instrument (GE Healthcare, Buckinghamshire, UK). For immobilization, the running buffer was HBS buffer (HEPES, NaCl, Tween‐20, pH 7.4). 14‐3‐3η was immobilized on an NTA sensor chip (Series S Sensor Chip GE Healthcare) using NTA reagent and Biacore Amine Coupling Kit. Briefly, 14‐3‐3η was diluted to 0.2 mg·mL^−1 and 200 µL was injected over a chip surface that had been activated with an injection of Ni^2+, followed by 140 µL of 1 : 1 NHS/EDC. A 30 µL of 0.5 M ethanolamine was then injected to cap the excess free amine groups. […] Then, 20 µL of these solutions were injected over a 14‐3‐3η immobilized surface for 1 min at the […] flow rate, followed by a 4 min regeneration period with HBS buffer. Kinetics and the binding affinity were calculated using the BIACORE evaluation software (Buckinghamshire, UK). Standard dose–response curves were fitted by plotting RUs against the peptide concentration.

[4] = molecular target: T1, 14‐3‐3η; experiment: Isothermal titration calorimetry, peptide into 14‐3‐3η; format: binding; settings: 25 °C, HEPES pH 7.5
Procedure: as §1
Moreover, such experiments provide thermodynamic data and as a label‐free method require no immobilization/functionalization of any of the binding partners. Here data were obtained by titration of the peptide into 14‐3‐3η protein (Fig. 2D,E and Fig. S7).
Isothermal titration calorimetry experiments were carried out on a MicroCal iTC200 in HBS buffer at 25°C (25 mM HEPES pH 7.5, 100 mM NaCl, 10 mM MgCl2, 0.5 mM TCEP). Peptides ([…]) in the syringe were titrated into a cell containing 14‐3‐3η ([…]). Data were fitted using MICROCAL software (Northampton, MA, USA) to give binding constant (K d), enthalpy (ΔH), entropy (ΔS) and binding stoichiometry (n).

[5] = system: all isoforms of 14‐3‐3; experiment: Fluorescence anisotropy assays with all isoforms of 14‐3‐3 (result in words); format: binding, human; settings: FAM tracer peptide 50 nM, 0.1 nM - 300 µM protein, 10 mM HEPES, 150 mM NaCl, 0.1% Tween 20, 0.1% BSA pH 7.4; n = 3
Text: 14‐3‐3 proteins were titrated against a constant concentration of the tracer resulting in an increase of anisotropy upon engaging 14‐3‐3 proteins (Fig. 2A–C for 14‐3‐3 binding hDMX sequences and Figs S4–S6, for 14‐3‐3 binding hDM2 sequences, non‐binding sequence, and unphosphorylated controls). A noteworthy feature of the data is that different maximum anisotropy levels were observed between hDMX or hDM2 peptides and 14‐3‐3 isoforms, indicating different diffusion properties of the fluorophore when bound to the different 14‐3‐3 isoforms. […]
All assays were performed in 384 well plates (each experiment was run in triplicates) and data were collected by Perkin Elmer EnVision […] plate reader with excitation at 480 nm (30 nm bandwidth), polarised dichroic mirror at 505 nm and emission at 535 nm (40 nm bandwidth, S and P polarised). […] A ½ fold dilution series was performed in the titration, with plates read after 30 min, 4 h and 20–24 h. […] Total intensity I and anisotropy r were calculated using Equations 1 and 2 for each well. […]
Figure S4. Fluorescence anisotropy assays for the hDM2 peptides. […]
Figure S5. Fluorescence anisotropy assays for the hDMX144-158pThr151 peptide with all isoforms of 14-3-3. […]

fold higher affinity Kd1 of doubly phosphorylated peptide compared to singly phosphorylated peptide ([1]; FA, 14‐3‐3η, compared to hDM2_160‐171 ^pSer166 (hDM2 peptide) or hDMX361‐374 ^pSer367 (hDMX peptide)) [fold]	sedimentation coefficient of 14‐3‐3η with peptide vs protein alone (in words) [2]	koff [3] [s⁻¹]	kon [3] [M⁻¹ s⁻¹]	∆G (ITC), 14‐3‐3η ([4]; acetyl labelled peptides) [kcal/mol]	n (binding stoichiometry, ITC) ([4]; acetyl peptides, 14‐3‐3η)	‐T∆S (ITC) ([4]; acetyl peptides, 14‐3‐3η) [kcal/mol]	∆H (ITC) ([4]; acetyl peptides, 14‐3‐3η) [kcal/mol]	Kd ([1]; FA direct titration, FAM‐Ahx tracer peptide 50 nM, pH 7.4, 1:1 fit, n = 3, read-out: K d, 14‐3‐3η) [nM]	Compound	FA response / affinity with 14‐3‐3 proteins, all isoforms (in words) [5]
3	remained unchanged	0.0048	1.51e+06	-10.7	0.94	-5.4	-5.28 ± 0.17		CC[C@H](C)[C@H](NC(=O)[C@H](CC(=O)O)NC(=O)[C@H](CO)NC(=O)[C@@H](NC(=O)[C@H](COP(=O)(O)O)NC(=O)[C@H](CC(C)C)NC(=O)[C@H](CO)NC(=O)[C@H](Cc1c[nH]cn1)NC(=O)[C@@H](NC(=O)[C@H](CC(C)C)NC(=O)[C@H](CCCCN)NC(=O)[C@H](CO)NC(C)=O)[C@@H](C)O)[C@@H](C)O)C(=O)N[C@H](C(=O)N[C@@H](C)C(=O)N[C@H](C(=O)N1CCC[C@H]1C(=O)N[C@@H](CCC(=O)O)C(=O)N[C@@H](CCCCN)C(=O)N[C@@H](CCC(=O)O)C(=O)N[C@@H](CC(N)=O)C(=O)N[C@@H](CCC(=O)O)C(=O)NCC(=O)N[C@@H](CC(N)=O)C(=O)N[C@@H](CC(=O)O)C(=O)N[C@H](C(=O)N1CCC[C@H]1C(=O)N[C@@H](CC(=O)O)C(=O)N[C@@H](CS)C(=O)N[C@@H](CCCNC(=N)N)C(=O)N[C@@H](CCCNC(=N)N)C(=O)N[C@H](C(=O)N[C@H](C(=O)N[C@@H](COP(=O)(O)O)C(=O)N[C@@H](C)C(=O)N1CCC[C@H]1C(=O)N[C@H](C(=O)N[C@H](C(=O)N[C@@H](CCCNC(=N)N)C(=O)N1CCC[C@H]1C(N)=O)C(C)C)C(C)C)[C@@H](C)CC)[C@@H](C)O)C(C)C)[C@@H](C)CC)[C@@H](C)O [hDMX335‐373 ^pSer342/pSer367]	
		0.121	389000					98.8 ± 4.6	CC[C@H](C)[C@H](NC(=O)[C@@H](NC(=O)[C@H](CCCNC(=N)N)NC(=O)[C@H](CCCNC(=N)N)NC(=O)[C@H](CS)NC(=O)[C@H](CC(=O)O)NC(C)=O)[C@@H](C)O)C(=O)N[C@@H](COP(=O)(O)O)C(=O)N[C@@H](C)C(=O)N1CCC[C@H]1C(=O)N[C@H](C(=O)N[C@H](C(=O)N[C@@H](CCCNC(=N)N)C(=O)N1CCC[C@H]1C(=O)N[C@@H](CCCCN)C(N)=O)C(C)C)C(C)C [hDMX361‐374 ^pSer367] (Ac-DCRRTI[pS]APVVRPK-NH2)	
									X‐STSRKRT pT EDDIPTL‐NH2 [hDMX144‐158 ^pThr151, hDMX‐derived phosphopeptide, N‐terminal acetyl (ITC, SPR, crystallography) or FAM‐Ahx (FA tracer), C‐terminal amide]	no response
